Experimental data published in US12544400B2, “Treatment of myopic progression” (University of Utah Research Foundation, priority 2018, dated 2026).

Key:
[1] = test system: New Zealand white rabbits; experiment: rabbit corneal topography (diopter measurements); assay type: in vivo; conditions: 0.0025 mg/ml once or three times per day or 0.025 mg/ml once per day, 5 weeks; controls no drops, BSS, artificial tears; FIG. 4
Experimental: Copper sulfate pentahydrate (CuSO4) at 0.0025 mg/ml was administered to New Zealand white rabbits at a dose of once per day and three times per day. Additionally, a high concentration sample of 0.025 mg/ml CuSO4 pentahydrate was administered to New Zealand with rabbits once per day during the treatment period. Three different controls were administered either no drops, BSS, or artificial tears. Each of the 6 groups included 6 test subjects each. Topography images were taken before treatment and weekly for 5 weeks. Diopter measurements were the mean K values and at 3 mm. These values were compared to diopter measurements in laser cross-linked corneas after 1 month and 1 year.

[2] = test system: rabbits; experiment: safety of copper eye drops in vivo (ERG, slit-lamp, AS-OCT, histology); design: species or system rabbit; conditions: 0.0025 mg/ml TID or QD, 6 weeks
Experimental: Copper sulfate (CuSO4) pentahydrate solution was prepared at a concentration of 0.0025 mg/ml and administered three times a day (TID) or once a day (QD) to rabbits. An anterior segment evaluation was performed with slit-lamp biomicroscopy and Heidelberg Spectralis anterior segment optical coherence tomography (AS-OCT). Two rabbits (n=4 eyes) were sacrificed at each of day 1, week 1, week 4, and week 6 for copper levels in eye tissues and compared to control (no drops) rabbits. Aqueous humor, vitreous, retina, cornea, lens, and blood samples were analyzed for copper ions using inductively coupled plasma mass spectrometry (ICP-MS).
Rabbits (n=2) were sacrificed after 42 days by intravenous injection of 0.3 ml/kg euthanasia solution and the eyes were enucleated for histological evaluations and reading for signs of inflammation, tissue damage, scarring and fibrosis. The anterior section of the eyes were fixed in 10% formaldehyde-glutaraldehyde solution, dehydrated in a graded series of alcohol, embedded in paraffin, and sectioned with a microtome. The sections were stained with appropriate staining (hematoxylin and eosin and Masson Trichrome).

[3] = test system: human cadaver corneas; experiment: cornea radial strain measurement, human cadaver corneas immersed in CuSO4
Experimental: (§1) Cornea radial strain measurements were performed on human cadaver corneas and on rabbit corneas. Human cadaver corneas (n=2 pairs) were cultured as previously mentioned in Example 1. The treated group was immersed in 0.0016 mg/ml CuSO4 for 2 weeks. The samples also contained a small portion of sclera at both ends. Mineral oil was applied on the surface of the sclera-cornea-sclera strip to minimize tissue dehydration. Rabbit corneas were divided into 4 groups. Two groups were treatment groups receiving either CuSO4 pentahydrate 0.0025 mg/ml three times per day or CuSO4 pentahydrate 0.0025 mg/ml once per day. Two groups served as control receiving only BSS.
(§2) The sample was coupled between a motor and a transducer that applied a controlled pressure from 5-30 mmHg and measured the resultant radial strain. The sample length between the two gripping jaws was approximately 10 mm. Sample geometric information, including width and thickness, was input into the Rheometrics System Analyzer (RSA) control panel. Sample thickness was measured by an ultrasound pachymeter (DGH 550 Pa-chette2; DGH Technology, Exton, PA).

[4] = test system: rabbit corneas; experiment: cornea radial strain / corneal biomechanics, rabbit corneas after eye drop treatment; assay type: in vivo; conditions: CuSO4 pentahydrate 0.0025 mg/ml once or three times per day; compared with laser cross-linking; FIG. 3
Experimental: as §1, §2

[5] = test system: lysyl oxidase (LOX); experiment: peroxidase-coupled fluorometric lysyl oxidase activity assay on conditioned medium of cultured corneal stroma cells; assay type: cell-based; conditions: 0.0016 mg/mL CuSO4 in BSS vs BSS control, fibroblast cells from normal corneas and corneas having low corneal stiffness, FIGS. 1A-1B
Experimental: Cultured corneal stroma cells from normal corneas and corneas having low corneal stiffness (n=3 each) in 10% FBS DMEM were either exposed to BSS control or 0.0016 mg/mL CuSO4 in balanced salt solution (BSS) then filtered through a 0.25 μm filter. Conditioned culture medium underwent a peroxidase-coupled fluorometric activity assay for lysyl oxidase (LOX).
Tissues were collected under sterile techniques in an operative setting. Tissue samples were stored in a 10 cm tissue culture dish in an Optisol solution. Corneal tissue was suspended in 15% fetal bovine serum (FBS) DMEM/F12 with penicillin/streptomycin. Epithelium and Descemet's membrane were removed mechanically under a stereo microscope. The samples were further cut into small pieces by a surgical scissor, and added to 1 mg/mL collagenase; 10 mL per cornea was used. The sample pieces were plated to a 10 cm tissue culture dish and placed in a tissue culture incubator at 37° C. with 5% CO2. After 5 days, the cells were harvested and plated in 10% FBS DMEM without phenol red.
LOX enzyme activity in culture medium was measured using a peroxidase-coupled fluorometric assay using Amplex red. […] The fluorescence of oxidized Amplex red was recorded every 10 minutes using fluorescence plate reader. After subtracting the background fluorescence, the fluorescence intensity was plotted against the incubation time (FIGS. 1A and 1B).

[6] = test system: albino guinea pigs
Experimental: Progressive myopia occurs more often in albino guinea pigs than in their wild type counterparts, even without imposing diffusers or lenses. Guinea pigs were subjected to a cycle of 12 hours of light/12 hours of dark. An eye drop including 0.0025 mg/ml CuSO4 pentahydrate in phosphate buffered ophthalmic solution was administered at approximately 2 weeks of age to the right eyes (OD) of albino guinea pigs (n=4). Left eyes (OS) received control drops (ophthalmic vehicle only). Eye drops (approximately 30 μL) were administered 3 times per day for approximately 6 weeks. Refractive error was measured by a pediatric ophthalmologist prior to treatment on day 1 and at subsequent timepoints according to the schedule depicted in FIGS. 7A-7B. […] FIGS. 7A-7B present average refractive error measurements for the test subjects in each eye with error bars and linear fit, respectively.

[7] = test system: New Zealand white rabbit; conditions: 0.0025 mg/ml 3 times per day for 6 weeks vs vehicle and control groups; FIG. 8
Experimental: New Zealand white rabbit right eyes were separated (n=6 per group) into treatment group (0.0025 mg/ml CuSO4 pentahydrate in phosphate buffered ophthalmic solution), vehicle group (phosphate buffered ophthalmic solution), and control group (no drops). Drops were administered 3 times per day for 6 weeks in treatment eyes. Animals were followed weekly for TOP measurements, topography and ocular response analyzer. At the end of the 6 weeks, rabbits were sacrificed and eye was immediately dissected within 30 minutes of sacrifice. Recovered corneas weight was recorded. Samples were reduced with NaBH4 at room temperature then washed with water twice, dried, and hydrolyzed with 6N HCl in vacuo for 18 hours at 110° C. Post hydrolysis, cross-link enrichment was carried out by using a cellulose mini-column method. LNL was measured by mass spectroscopy.

[8] = test system: New Zealand white rabbit; conditions: 0.0016 mg/ml 3x/day for 24 days
Experimental: New Zealand white rabbit right eyes (n=3) were treated with 0.0016 mg/ml CuSO4 3×/day for 24 days. Left eyes were treated with BSS (TID) for 24 days and served as controls. Corneal-OCT pictures were taken at baseline and at day 24.

[9] = 0.0016 mg/ml CuSO4 for 2 weeks vs untreated, FIG. 2

Compound	diopter measurements (mean K and at 3 mm), change vs control groups [1]	toxicity in dissected eye tissues [2]	corneal strength ([3]; FIG. 2 legend)	corneal biomechanics [4]	LOX enzyme activity [5]	LOX enzyme activity ([5]; listed as copper)	histopathological analysis of dissected eyes ([6]; 0.0025 mg/ml 3 times per day, approximately 6 weeks, data not shown)	myopic progression (average refractive error) in the treatment eye ([6]; 0.0025 mg/ml eye drop 3 times per day for approximately 6 weeks, OD vs vehicle OS, FIGS. 7A-7B)	IOP measurements ([6]; all eyes during the study, within normal limits, data not shown)	LNL crosslinking in corneas [7]	corneal stiffness [3, 9]	radial strain [3, 9]	average peak radial strain induced by ocular pulse, treated vs untreated corneas ([3]; at 20 mmHg)	increase in corneal strength ([3]; from peak radial strain at 20 mmHg, treated vs untreated) [%]	cornea epithelial layer by OCT / gross toxicity to the corneas [8]	slit-lamp examination [8]	central cornea flattening by OCT ([8]; right eyes n=3 vs BSS left eyes, FIGS. 6A-6F)
[Cu] [Cu, copper]	decreased	no observed toxicity	increased	improved	increased	dramatically increased											
O.O.O.O.O.O=S(=O)([O-])[O-].[Cu+2] [CuSO4 pentahydrate, copper (II) sulfate pentahydrate]				comparable to that seen with laser cross-linking			no observed toxicity	effective in reducing myopic progression	15-25 mmHg	increased							
O=S(=O)([O-])[O-].[Cu+2] [CuSO4, copper (II) sulfate]	greater decrease										marked increase	decrease	about 1.5 times lower	~50	no gross toxicity	no inflammation or opacification	cornea flattening in all 3 treatment eyes
